Measurements published in PubChem BioAssay AID1845197 (Molecular Pharmacology Branch, DTP, NCI, 2023).

Test system: 349418-098-R tumor spheroid viability
Assay: Anticancer human tumor 349418-098-R patient-derived lung adenocarcinoma cell line growth inhibition
Details: spheroids with HUVEC and MSC; for IC50: curve of first compound; for viability, T/C: stronger effect = lower value
From the text: Multicellular complex tumor spheroid response to DNA repair inhibitors in combination with DNA-damaging drugs
This study explores the anticancer activities of DNA-damaging drugs and inhibitors of DNA damage repair, both as single agents and in combinations. Complex tumor spheroids comprised of malignant cells, endothelial cells and mesenchymal stem cells served as an in vitro model for human solid tumors. This model system incorporates physiologically relevant features and patient-derived or established malignant cell lines with clinically relevant genetic alterations from many tumor types. Twenty-six patient-derived or established malignant cell lines were evaluated representing sarcoma, melanoma, small cell lung cancer (SCLC), non-small cell lung cancer (NSCLC), as well as bladder, ovarian and pancreatic cancers. The concentration ranges selected for each drug and investigational agent were based upon clinically achievable concentrations if the clinical Cmax of the agent was known.
Compounds. The drugs and compounds olaparib (NSC753686), talazoparib (NSC767125), berzosertib (NSC777718), elimusertib (NSC800525), nedisertib (NSC802822), VX-984 (NSC792969), AZD-1390 (NSC803789), temozolomide (NSC362856), topotecan (NSC609699), trabectedin (NSC813783), staurosporine (NSC755774), and gemcitabine (NSC613327) were obtained from the National Cancer Institute (NCI) Developmental Therapeutics Program Chemical Repository. The FDA-approved anticancer drug set is available from the Developmental Therapeutics Program at https://dtp.cancer.gov/organization/dscb/obtaining/available_plates.htm. […] The stock solutions were prepared in dimethyl sulfoxide (DMSO, Sigma-Aldrich, St. Louis, MO, cat. D2650) at 400-fold the tested concentration and stored at -70 degrees C. Prior to their use, the stock solutions were diluted in fresh medium and the final DMSO concentration in the assay was 0.25% (v/v). All drugs and investigational agents were tested over a range starting from a high concentration at or near the clinical Cmax and decreasing in half-log increments. If the clinical Cmax for an agent had not been determined, the highest concentration tested was 10 microM.
Cell Lines. The patient-derived cancer cell (PDC) lines: 156681-154-R-J1-PDC, 283228-195-R-J1-PDC, 287954-098-R-J1-PDC, 292921-168-R-J2-PDC, 349418-098-R-PDC, 425362-245-T-J1-PDC, 556581-035-R-J1-PDC, and BL0293-F563-PDC were received from the NCI Patient-Derived Models Repository (PDMR, https://pdmr.cancer.gov). The established cell lines HS-SY-2 (RRID:CVCL_8719), MPNST, and SYO-1 (RRID:CVCL_7146) were obtained from the Sloan Kettering Institute. The alveolar soft parts sarcoma cell line ASPS-1 (RRID:CVCL_S738) was established at the NCI and grown from internal seed stocks. The following established cell lines were purchased from the American Type Culture Collection (ATCC, Manassas, VA): G-401 (ATCC, cat. CRL-1441, RRID:CVCL_0270), SW982 (ATCC, cat. HTB-93, RRID:CVCL_1734), VA-ES-BJ (ATCC, cat. CRL-2138, RRID:CVCL_1785), NCI-H719 (ATCC, cat. CRL-5837, RRID:CVCL_1582), NCI-H196 (ATCC, cat. CRL-5823, RRID:CVCL_1509), NCI-H841 (ATCC, cat. CRL-5845, RRID:CVCL_1595), NCI-H1618 (ATCC, cat. CRL-5879, RRID:CVCL_1480), NCI-H1876 (ATCC, cat. CRL-5902, RRID:CVCL_1503), DMS 114 (ATCC, cat. CRL-2066; RRID:CVCL_1174), NCI-H211 (ATCC, cat. CRL-5824; RRID:CVCL_1529), and SW 1271 (ATCC, cat. CRL-2177, RRID:CVCL_1716). The small cell lung cancer cell line COR-L88 was purchased from Sigma-Aldrich (cat. 92031917-1VL, RRID:CVCL_1141). The non-small cell lung cancer cell lines NCI-H226 (RRID:CVCL_1544) and NCI-H322M (RRID:CVCL_1557) were established at the NCI and grown from internal seed stocks. Pooled donor human umbilical vein endothelial cells (HUVEC, Lonza, cat. CC-2519) and human mesenchymal stem cells (hMSC, Lonza, cat. PT-2501) were purchased from Lonza (Walkersville, MD).
Cell Culture. All cells were maintained in an incubator at 37 degrees C and 5% CO2 with 95% humidity. […]

[1] = second compound 0.003 µM, first compound 0.0949 µM
[2] = second compound 0.003 µM, first compound 0.3 µM
[3] = second compound 0.003 µM, first compound 0.949 µM
[4] = second compound 0.003 µM, first compound 3 µM
[5] = second compound 0.00949 µM, first compound 0.0949 µM
[6] = second compound 0.00949 µM, first compound 0.3 µM
[7] = second compound 0.00949 µM, first compound 0.949 µM
[8] = second compound 0.00949 µM, first compound 3 µM
[9] = second compound 0.03 µM, first compound 0.0949 µM
[10] = second compound 0.03 µM, first compound 0.3 µM
[11] = second compound 0.03 µM, first compound 0.949 µM
[12] = second compound 0.03 µM, first compound 3 µM
[13] = second compound 0.0949 µM, first compound 0.0949 µM
[14] = second compound 0.0949 µM, first compound 0.3 µM
[15] = second compound 0.0949 µM, first compound 0.949 µM
[16] = second compound 0.0949 µM, first compound 3 µM
[17] = second compound 0.3 µM, first compound 0.0949 µM
[18] = second compound 0.3 µM, first compound 0.3 µM
[19] = second compound 0.3 µM, first compound 0.949 µM
[20] = second compound 0.3 µM, first compound 3 µM
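Also: spheroids exposed to compound for 7 days before measurement.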
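For viability, T/C in this document: percent of vehicle control viability with 100% = DMSO-treated spheroids.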

Row | Structure (SMILES) | IC50 (second compound 0.003 µM) [nM] | IC50 (second compound 0.00949 µM) [nM] | IC50 (second compound 0.03 µM) [nM] | IC50 (second compound 0.0949 µM) [nM] | IC50 (second compound 0.3 µM) [nM] | viability, T/C [1] [%] | viability, T/C [2] [%] | viability, T/C [3] [%] | viability, T/C [4] [%] | viability, T/C [5] [%] | viability, T/C [6] [%] | viability, T/C [7] [%] | viability, T/C [8] [%] | viability, T/C [9] [%] | viability, T/C [10] [%] | viability, T/C [11] [%] | viability, T/C [12] [%] | viability, T/C [13] [%] | viability, T/C [14] [%] | viability, T/C [15] [%] | further results
1 | Cn1ncnc1[C@H]1c2n[nH]c(=O)c3cc(F)cc(c23)N[C@@H]1c1ccc(F)cc1 + CC[C@@]1(O)C(=O)OCc2c1cc1n(c2=O)Cc2cc3c(CN(C)C)c(O)ccc3nc2-1 | 1620 | 1100 | 53.9 | < 9.49 | < 9.49 | 91.4 | 96.6 | 83.3 | 11.1 | 90.8 | 92.6 | 56.1 | 7.96 | 41.3 | 31.1 | 18.3 | 2.95 | 12.7 | 8.01 | 5.35 | viability, T/C (second compound 0.003 µM, first compound 0.00949 µM): 93.6%; viability, T/C (second compound 0.003 µM, first compound 0.03 µM): 97.7%; viability, T/C (second compound 0.00949 µM, first compound 0.00949 µM): 100%; viability, T/C (second compound 0.00949 µM, first compound 0.03 µM): 97.6%; viability, T/C (second compound 0.03 µM, first compound 0.00949 µM): 63.4%; viability, T/C (second compound 0.03 µM, first compound 0.03 µM): 59.5%; viability, T/C (second compound 0.0949 µM, first compound 0.00949 µM): 13.1%; viability, T/C (second compound 0.0949 µM, first compound 0.03 µM): 9.39%; viability, T/C [16]: 1.86%; viability, T/C (second compound 0.3 µM, first compound 0.00949 µM): 3.53%; viability, T/C (second compound 0.3 µM, first compound 0.03 µM): 3.12%; viability, T/C [17]: 3.64%; viability, T/C [18]: 3.26%; viability, T/C [19]: 2.39%; viability, T/C [20]: 1.17%
2 | O=C(c1cc(Cc2n[nH]c(=O)c3ccccc23)ccc1F)N1CCN(C(=O)C2CC2)CC1 + CC[C@@]1(O)C(=O)OCc2c1cc1n(c2=O)Cc2cc3c(CN(C)C)c(O)ccc3nc2-1 | 27400 | 23400 | 4080 | < 94.9 | < 94.9 | 102 | 96.3 | 98 | 97.6 | 99.2 | 101 | 97.8 | 94.3 | 67.3 | 72.8 | 61.5 | 58.8 | 19.8 | 21.7 | 20.8 | viability, T/C (second compound 0.003 µM, first compound 9.49 µM): 76%; viability, T/C (second compound 0.003 µM, first compound 30 µM): 47.8%; viability, T/C (second compound 0.00949 µM, first compound 9.49 µM): 72.6%; viability, T/C (second compound 0.00949 µM, first compound 30 µM): 43.8%; viability, T/C (second compound 0.03 µM, first compound 9.49 µM): 29.8%; viability, T/C (second compound 0.03 µM, first compound 30 µM): 12.8%; viability, T/C [16]: 18%; viability, T/C (second compound 0.0949 µM, first compound 9.49 µM): 12%; viability, T/C (second compound 0.0949 µM, first compound 30 µM): 7.08%; viability, T/C [17]: 3.58%; viability, T/C [18]: 3.79%; viability, T/C [19]: 4.35%; viability, T/C [20]: 4.53%; viability, T/C (second compound 0.3 µM, first compound 9.49 µM): 3.36%; viability, T/C (second compound 0.3 µM, first compound 30 µM): 3.46%
